This note sets out measurements from patent US11060153B2, “Fluorescence amplification method for forward genetic discovery of factors in human mRNA degradation” (Yale University, priority 2016, dated 2021).

The data set concerns human NMD. Put plainly: FACS analysis of green fluorescence of the PTC(+) GFP reporter in the "red" Fireworks cell line after NMD inhibition. The format is cell-based. Conditions: FIG. 7B. From the text:
Sixteen of the most abundant individual sgRNAs (Table 1), whose enrichment scores in the 2nd round exceeded 10.0, were individually cloned into linearized Lt-CRISPR vector and lentivirally transduced into the “green” Fireworks cell line. Resulting cells were propagated for 11 days (or 21 days for AVEN sgRNA) and FACS-analyzed to observe an increase in […] fluorescence of the PTC(+) Fireworks reporter. Indeed, the vast majority of sgRNAs reproduced the shift when tested individually. RPS8 and AVEN were targeted with shRNAs (sh22: 5′[…] GTTTTTTG3′ (SEQ ID NO: 8) and sh01: 5′[…] CTTTTTTG3′ (SEQ ID NO: 9) for RPS8 and AVEN, respectively) cloned into the pLKO.1 vector (Moffat et al., Cell 2006, 124:1283-1298) that was used to transduce “green” and “red” Fireworks cells followed by FACS-analysis to observe effects of mRNA knockdown on fluorescence of the PTC(+) reporters.
The Fireworks approach provides the ability to perform forward genetic screens for human NMD factors at the speed of a FACS sorter. As designed, orthogonal Fireworks cell lines respond as expected to the introduction of a stop codon (PTC39) (Zhang et al., RNA 1998, 4:801-815) into the β-globin sequence by a 7- to 9-fold reduction in the reporter's fluorescence (FIGS. 1C, 1D and 2C). PTC39, which is upstream of the last intron in the β-globin pre-mRNA, induces NMD of the Fireworks reporter mRNA. […]
A general note: In flow cytometry, cells or beads pass a laser one at a time.

Take “CCGGCCGTGCCCTGAGGTTGGACGTCTCGAGACGTCCAACCTCAGGGCACG GTTTTTTG (guide CCGGCCGTGCCCTGAGGTTGGACGTCTCGAGACGTCCAACCTCAGGGCACGGTTTTTTG; expressed or natural sequence) [RPS8-targeting shRNA, shRNA targeting RPS8 cloned into the pLKO.1 vector]”: the “green fluorescence of the "red" Fireworks cell line after shRNA transduction” value is given as “increase in green fluorescence”.
